Measured values as given in publication PMC5218480 (PLoS ONE, 2017).

Tested on: MV-4-11 cells
Test: Gene expression microarray analysis (Affymetrix PrimeView) and GSEA
Assay type: cell-based, human
Parameters: RFU PODN (11730768_x_at) / Fold change /veh PODN (11730768_x_at) / RFU LINC00158 (11744669_a_at) / Fold change /veh LINC00158 (11744669_a_at) / RFU DUSP10 (11751237_a_at) / Fold change /veh DUSP10 (11751237_a_at) / RFU ID3 (11757404_x_at) / Fold change /veh ID3 (11757404_x_at) / RFU PLEKHG5 (11737974_s_at) / Fold change /veh PLEKHG5 (11737974_s_at) / RFU LRRC4B (11730491_at) / Fold change /veh LRRC4B (11730491_at) / RFU GIMAP4 (11747438_a_at) / Fold change /veh GIMAP4 (11747438_a_at) / RFU KRT8 (11758183_x_at) / Fold change /veh KRT8 (11758183_x_at) / RFU CNN1 (11734310_a_at) / Fold change /veh CNN1 (11734310_a_at) / RFU VPS37D (11726825_at) / Fold change /veh VPS37D (11726825_at) / RFU C10orf10 (11716522_x_at) / Fold change /veh C10orf10 (11716522_x_at) / RFU KIR2DL2 /// KIR2DL4 /// KIR2DL5A /// KIR2DL5B /// KIR2DS1 /// KIR2DS2 /// KIR2DS3 /// KIR2DS4 /// KIR3DL3 /// KIR3DL3 /// KIR3DS1 (11738374_at) / Fold change /veh KIR2DL2 /// KIR2DL4 /// KIR2DL5A /// KIR2DL5B /// KIR2DS1 /// KIR2DS2 /// KIR2DS3 /// KIR2DS4 /// KIR3DL3 /// KIR3DL3 /// KIR3DS1 (11738374_at) / RFU C1QL1 (11718748_at) / Fold change /veh C1QL1 (11718748_at) / RFU TMPRSS4 (11747572_a_at) / Fold change /veh TMPRSS4 (11747572_a_at) / RFU HAMP (11756126_x_at) / Fold change /veh HAMP (11756126_x_at) / RFU RNFT2 (11725882_a_at) / Fold change /veh RNFT2 (11725882_a_at) / RFU NR4A2 (11747474_a_at) / Fold change /veh NR4A2 (11747474_a_at) / RFU ABCC12 (11746883_a_at) / Fold change /veh ABCC12 (11746883_a_at) / RFU TMEM136 (11760407_x_at) / Fold change /veh TMEM136 (11760407_x_at) / RFU CLDN22 /// WWC2 (11732394_at) / Fold change /veh CLDN22 /// WWC2 (11732394_at) / RFU HLA-DPB1 (11760878_x_at) / Fold change /veh HLA-DPB1 (11760878_x_at) / RFU SPINT1 (11716480_a_at) / Fold change /veh SPINT1 (11716480_a_at) / RFU GAP43 (11754022_s_at) / Fold change /veh GAP43 (11754022_s_at) / RFU A4GNT (11735810_at) / Fold change /veh A4GNT (11735810_at) / RFU PRB3 (11715151_x_at) / Fold change /veh PRB3 (11715151_x_at) / RFU TUBB4B (11761932_at) / Fold change /veh TUBB4B (11761932_at) / RFU CAPN14 (11732068_a_at) / Fold change /veh CAPN14 (11732068_a_at) / RFU TMCC2 (11721928_a_at) / Fold change /veh TMCC2 (11721928_a_at) / RFU IRGQ (11745062_a_at) / Fold change /veh IRGQ (11745062_a_at) / RFU FAM174B (11720279_a_at) / Fold change /veh FAM174B (11720279_a_at) / RFU TMPRSS4 (11748680_a_at) / Fold change /veh TMPRSS4 (11748680_a_at) / RFU FAM212B (11763350_a_at) / Fold change /veh FAM212B (11763350_a_at) / RFU PLEKHG5 (11743358_a_at) / Fold change /veh PLEKHG5 (11743358_a_at) / RFU ZSCAN30 (11745921_a_at) / Fold change /veh ZSCAN30 (11745921_a_at) / RFU CMKLR1 (11741424_a_at) / Fold change /veh CMKLR1 (11741424_a_at) / RFU LOC101060620 /// MAPK8IP1 (11723275_at) / Fold change /veh LOC101060620 /// MAPK8IP1 (11723275_at) / RFU SPTSSB (11747773_x_at) / Fold change /veh SPTSSB (11747773_x_at) / RFU PRSS12 (11739890_at) / Fold change /veh PRSS12 (11739890_at) / RFU BIN1 (11741810_x_at) / Fold change /veh BIN1 (11741810_x_at) / RFU WNT11 (11732464_a_at) / Fold change /veh WNT11 (11732464_a_at) / RFU C10orf10 (11716521_a_at) / Fold change /veh C10orf10 (11716521_a_at) / RFU C5orf56 (11738089_at) / Fold change /veh C5orf56 (11738089_at) / RFU CYB561 (11721691_x_at) / Fold change /veh CYB561 (11721691_x_at) / RFU ANKRD19P (11752326_a_at) / Fold change /veh ANKRD19P (11752326_a_at) / RFU OR2T12 /// OR2T33 /// OR2T8 (11738714_s_at) / Fold change /veh OR2T12 /// OR2T33 /// OR2T8 (11738714_s_at) / RFU VCAN (11748164_a_at) / Fold change /veh VCAN (11748164_a_at) / RFU JSRP1 (11732532_at) / Fold change /veh JSRP1 (11732532_at) / RFU KRTAP10-11 (11738290_x_at) / Fold change /veh KRTAP10-11 (11738290_x_at) / RFU MYO3A (11730013_a_at) / Fold change /veh MYO3A (11730013_a_at) / RFU EBF3 (11725865_a_at) / Fold change /veh EBF3 (11725865_a_at) / RFU CAMK2N1 (11719241_x_at) / Fold change /veh CAMK2N1 (11719241_x_at) / RFU C5orf56 (11738088_a_at) / Fold change /veh C5orf56 (11738088_a_at) / RFU OLFML3 (11715873_a_at) / Fold change /veh OLFML3 (11715873_a_at) / RFU LOC100653217 /// NTM (11731650_a_at) / Fold change /veh LOC100653217 /// NTM (11731650_a_at) / RFU MAPK11 (11762145_a_at) / Fold change /veh MAPK11 (11762145_a_at) / RFU FIZ1 (11724087_x_at) / Fold change /veh FIZ1 (11724087_x_at) / RFU OASL (11726364_x_at) / Fold change /veh OASL (11726364_x_at) / RFU SOX15 (11748057_x_at) / Fold change /veh SOX15 (11748057_x_at) / RFU CD79A (11719716_a_at) / Fold change /veh CD79A (11719716_a_at) / RFU HIST1H1D (11736915_at) / Fold change /veh HIST1H1D (11736915_at) / RFU CASKIN2 (11723855_a_at) / Fold change /veh CASKIN2 (11723855_a_at) / RFU LOC730098 (11760151_x_at) / Fold change /veh LOC730098 (11760151_x_at) / RFU OR4N2 (11742367_at) / Fold change /veh OR4N2 (11742367_at) / RFU PRRT2 (11749266_a_at) / Fold change /veh PRRT2 (11749266_a_at) / RFU SNX32 (11753110_a_at) / Fold change /veh SNX32 (11753110_a_at) / RFU CDHR5 (11726645_a_at) / Fold change /veh CDHR5 (11726645_a_at) / RFU RCAN1 (11760418_a_at) / Fold change /veh RCAN1 (11760418_a_at) / RFU FAM167A (11723789_a_at) / Fold change /veh FAM167A (11723789_a_at) / RFU FAM26E (11764081_at) / Fold change /veh FAM26E (11764081_at) / RFU ISYNA1 (11749810_s_at) / Fold change /veh ISYNA1 (11749810_s_at) / RFU ACY1 (11761880_at) / Fold change /veh ACY1 (11761880_at) / RFU 11764098_at / Fold change /veh 11764098_at / RFU SAMD14 (11745864_x_at) / Fold change /veh SAMD14 (11745864_x_at) / RFU NPB (11741838_a_at) / Fold change /veh NPB (11741838_a_at) / RFU TMPRSS6 (11731388_a_at) / Fold change /veh TMPRSS6 (11731388_a_at) / RFU KRTAP10-2 (11738614_at) / Fold change /veh KRTAP10-2 (11738614_at) / RFU ARHGAP8 /// PRR5-ARHGAP8 (11727945_x_at) / Fold change /veh ARHGAP8 /// PRR5-ARHGAP8 (11727945_x_at) / RFU KRTAP5-7 /// NADSYN1 (11734609_at) / Fold change /veh KRTAP5-7 /// NADSYN1 (11734609_at) / RFU RASL12 (11751679_a_at) / Fold change /veh RASL12 (11751679_a_at) / RFU CDKN2B (11736163_a_at) / Fold change /veh CDKN2B (11736163_a_at) / RFU PRF1 (11729649_at) / Fold change /veh PRF1 (11729649_at) / RFU, ZNF638 /// ZNF638-IT1 / Fold change vs veh, ZNF638 /// ZNF638-IT1 / RFU, PANK3 / Fold change vs veh, PANK3 / RFU, SH3YL1 / Fold change vs veh, SH3YL1 / RFU, ZEB2 / Fold change vs veh, ZEB2 / RFU, NRIP1 / Fold change vs veh, NRIP1 / RFU, PTTG1IP / Fold change vs veh, PTTG1IP / RFU, CAPN2 / Fold change vs veh, CAPN2 / RFU, MED14 / Fold change vs veh, MED14 / RFU, SNORA58 / Fold change vs veh, SNORA58 / RFU, C1orf63 / Fold change vs veh, C1orf63 / RFU, LRRFIP1 / Fold change vs veh, LRRFIP1 / RFU, NDUFAF7 / Fold change vs veh, NDUFAF7 / RFU, SLC12A2 / Fold change vs veh, SLC12A2 / RFU, IBTK / Fold change vs veh, IBTK / RFU, ESF1 / Fold change vs veh, ESF1 / Fold change vs veh, TMEM50B / RFU, TAOK1 / Fold change vs veh, TAOK1 / RFU, ACBD3 / Fold change vs veh, ACBD3 / RFU, TMA16 / Fold change vs veh, TMA16 / RFU, RWDD3 / Fold change vs veh, RWDD3 / RFU, BCAT1 / Fold change vs veh, BCAT1 / RFU, EDEM3 / Fold change vs veh, EDEM3 / RFU, TMEM33 / Fold change vs veh, TMEM33 / RFU, WDR75 / Fold change vs veh, WDR75 / RFU, AHCTF1 / Fold change vs veh, AHCTF1 / RFU, TFRC / Fold change vs veh, TFRC / RFU, ZDHHC17 / Fold change vs veh, ZDHHC17 / RFU, NOM1 / Fold change vs veh, NOM1 / RFU, ARL8B / Fold change vs veh, ARL8B / RFU, ZBTB11 / Fold change vs veh, ZBTB11 / RFU, TAMM41 / Fold change vs veh, TAMM41 / RFU, KIAA1704 /// LOC100996395 / Fold change vs veh, KIAA1704 /// LOC100996395 / RFU, ING1 / Fold change vs veh, ING1 / RFU, TRMT61B / Fold change vs veh, TRMT61B / RFU, FUBP3 / Fold change vs veh, FUBP3 / RFU, TP53 / Fold change vs veh, TP53 / RFU, TNKS2 / Fold change vs veh, TNKS2 / RFU, ZFP14 / Fold change vs veh, ZFP14 / RFU, ACTR2 / Fold change vs veh, ACTR2 / RFU, PPP3R1 / Fold change vs veh, PPP3R1 / RFU, PIK3R1 / Fold change vs veh, PIK3R1 / RFU, HNRNPA1 / Fold change vs veh, HNRNPA1 / RFU, RNF170 / Fold change vs veh, RNF170 / RFU, ZNF28 / Fold change vs veh, ZNF28 / RFU, RNGTT / Fold change vs veh, RNGTT / RFU, OGT / Fold change vs veh, OGT / RFU, BRD1 / Fold change vs veh, BRD1 / RFU, MARS / Fold change vs veh, MARS / RFU, ZNF655 / Fold change vs veh, ZNF655 / RFU, FAHD1 / Fold change vs veh, FAHD1 / RFU, BDP1 / Fold change vs veh, BDP1 / RFU, LRRCC1 / Fold change vs veh, LRRCC1 / RFU, ARID1A / Fold change vs veh, ARID1A / RFU, ZNF146 / Fold change vs veh, ZNF146 / RFU, ZNF330 / Fold change vs veh, ZNF330 / RFU, GPN3 / Fold change vs veh, GPN3 / RFU, C9orf123 / Fold change vs veh, C9orf123 / RFU, N4BP2L2 / Fold change vs veh, N4BP2L2 / RFU, ARFIP1 / Fold change vs veh, ARFIP1 / RFU, FAM179B / Fold change vs veh, FAM179B / RFU, BCL10 / Fold change vs veh, BCL10 / RFU, UHRF1BP1L / Fold change vs veh, UHRF1BP1L / RFU, BET1 / Fold change vs veh, BET1 / RFU, CNOT2 / Fold change vs veh, CNOT2 / RFU, ZNF268 / Fold change vs veh, ZNF268 / Fold change vs veh, ZNF507 / RFU, DGCR2 / Fold change vs veh, DGCR2 / RFU, WDSUB1 / Fold change vs veh, WDSUB1 / Fold change vs veh, HSP90B1 /// MIR3652 / RFU, ADSS / Fold change vs veh, ADSS / RFU, GK / Fold change vs veh, GK / RFU, ZNF148 / Fold change vs veh, ZNF148 / RFU, TAF9 / Fold change vs veh, TAF9 / RFU, SLC1A5 / Fold change vs veh, SLC1A5 / RFU, SLMO2 / Fold change vs veh, SLMO2 / RFU, ABCC4 / Fold change vs veh, ABCC4 / RFU, LOC101060439 /// RAP1B / Fold change vs veh, LOC101060439 /// RAP1B / RFU, RFX7 / Fold change vs veh, RFX7 / RFU, GTPBP10 / Fold change vs veh, GTPBP10 / RFU, CNEP1R1 / Fold change vs veh, CNEP1R1 / RFU, BIVM-ERCC5 /// ERCC5 / Fold change vs veh, BIVM-ERCC5 /// ERCC5 / RFU, ILF3 / Fold change vs veh, ILF3 / RFU 11762660_at / Fold change /veh 11762660_at / RFU VCAN (11757783_s_at) / Fold change /veh VCAN (11757783_s_at) / RFU DDX43 (11728927_at) / Fold change /veh DDX43 (11728927_at) / RFU KRT8 (11758188_x_at) / Fold change /veh KRT8 (11758188_x_at) / RFU NKD1 (11759106_at) / Fold change /veh NKD1 (11759106_at) / RFU SRD5A1 (11742802_a_at) / Fold change /veh SRD5A1 (11742802_a_at) / RFU TPSAB1 /// TPSB2 (11721975_s_at) / Fold change /veh TPSAB1 /// TPSB2 (11721975_s_at) / RFU GSTM3 (11746129_a_at) / Fold change /veh GSTM3 (11746129_a_at) / RFU IL23R (11737362_x_at) / Fold change /veh IL23R (11737362_x_at) / RFU TMEM51 (11727254_a_at) / Fold change /veh TMEM51 (11727254_a_at) / RFU PIWIL2 (11732686_x_at) / Fold change /veh PIWIL2 (11732686_x_at) / RFU ORM1 (11744905_x_at) / Fold change /veh ORM1 (11744905_x_at) / RFU CCDC152 (11743942_at) / Fold change /veh CCDC152 (11743942_at) / RFU ECM1 (11717891_a_at) / Fold change /veh ECM1 (11717891_a_at) / RFU IL23R (11748794_a_at) / Fold change /veh IL23R (11748794_a_at) / RFU TNFAIP8L3 (11732012_x_at) / Fold change /veh TNFAIP8L3 (11732012_x_at) / RFU MBOAT4 (11741988_at) / Fold change /veh MBOAT4 (11741988_at) / RFU 11764193_at / Fold change /veh 11764193_at / RFU TMEM53 (11763286_at) / Fold change /veh TMEM53 (11763286_at) / RFU MAGEB2 (11727129_at) / Fold change /veh MAGEB2 (11727129_at) / RFU TMEM200A (11744735_a_at) / Fold change /veh TMEM200A (11744735_a_at) / RFU CCDC152 (11751479_a_at) / Fold change /veh CCDC152 (11751479_a_at) / RFU FAM211A (11726209_a_at) / Fold change /veh FAM211A (11726209_a_at) / RFU RGS16 (11746705_a_at) / Fold change /veh RGS16 (11746705_a_at) / RFU VCAN (11755009_s_at) / Fold change /veh VCAN (11755009_s_at) / RFU RHOB (11743442_s_at) / Fold change /veh RHOB (11743442_s_at) / RFU RGS16 (11720943_a_at) / Fold change /veh RGS16 (11720943_a_at) / RFU RGS16 (11720944_at) / Fold change /veh RGS16 (11720944_at) / RFU, VPS4B / Fold change vs veh, VPS4B / RFU, CREB1 / Fold change vs veh, CREB1 / RFU, DNAJC13 / Fold change vs veh, DNAJC13 / RFU, GNAQ / Fold change vs veh, GNAQ / RFU, CDK5R1 / Fold change vs veh, CDK5R1 / RFU, ZRANB3 / Fold change vs veh, ZRANB3 / RFU, CUL4A / Fold change vs veh, CUL4A / RFU, CCNY / Fold change vs veh, CCNY / RFU, UFL1 / Fold change vs veh, UFL1 / RFU, COG3 / Fold change vs veh, COG3 / RFU, DIAPH2 / Fold change vs veh, DIAPH2 / RFU, SKA2 / Fold change vs veh, SKA2 / RFU, AFF3 / Fold change vs veh, AFF3 / RFU, LMF1 / Fold change vs veh, LMF1 / RFU, IPO11 / Fold change vs veh, IPO11 / RFU, DFFB / Fold change vs veh, DFFB / RFU, FOXP1 / Fold change vs veh, FOXP1 / RFU, CARD8 / Fold change vs veh, CARD8 / RFU, STRN3 / Fold change vs veh, STRN3 / RFU, ADK / Fold change vs veh, ADK / RFU, RASSF2 / Fold change vs veh, RASSF2 / RFU, WIPF1 / Fold change vs veh, WIPF1 / RFU, LARP1B / Fold change vs veh, LARP1B / RFU, RASA1 / Fold change vs veh, RASA1 / RFU, RB1 / Fold change vs veh, RB1 / RFU, PPFIA1 / Fold change vs veh, PPFIA1 / RFU, MAT2A / Fold change vs veh, MAT2A / RFU, CCT5 / Fold change vs veh, CCT5 / RFU, WDR92 / Fold change vs veh, WDR92 / RFU, CUX1 / Fold change vs veh, CUX1 / RFU, TTC7A / Fold change vs veh, TTC7A / RFU, TMEM135 / Fold change vs veh, TMEM135 / RFU, DEPTOR / Fold change vs veh, DEPTOR / RFU, CPM / Fold change vs veh, CPM / RFU, DNAJB6 / Fold change vs veh, DNAJB6 / RFU, CACNA2D3 / Fold change vs veh, CACNA2D3 / RFU, DTX4 / Fold change vs veh, DTX4 / RFU, TFCP2 / Fold change vs veh, TFCP2 / RFU, GMCL1 /// GMCL1P1 / Fold change vs veh, GMCL1 /// GMCL1P1 / RFU, AEBP2 / Fold change vs veh, AEBP2 / RFU, SNHG1 /// SNORD22 /// SNORD25 /// SNORD26 /// SNORD27 /// SNORD28 /// SNORD29 /// SNORD31 / Fold change vs veh, SNHG1 /// SNORD22 /// SNORD25 /// SNORD26 /// SNORD27 /// SNORD28 /// SNORD29 /// SNORD31 / Fold change (Aza/veh), C12orf56 (ProbeSet 11735607_a_at) / Fold change (ACY-1035/veh), C12orf56 (ProbeSet 11735607_a_at) / Fold change (Aza/veh), FGFR1OP (ProbeSet 11751329_s_at) / Fold change (ACY-1035/veh), FGFR1OP (ProbeSet 11751329_s_at) / Fold change (Aza/veh), VPS36 (ProbeSet 11739960_a_at) / Fold change (ACY-1035/veh), VPS36 (ProbeSet 11739960_a_at) / RFU SYPL1 (11715823_x_at) / Fold change /veh SYPL1 (11715823_x_at) / RFU IGFBP7 (11715501_s_at) / Fold change /veh IGFBP7 (11715501_s_at) / RFU REEP3 (11722064_at) / Fold change /veh REEP3 (11722064_at) / RFU IGLL1 (11728026_x_at) / Fold change /veh IGLL1 (11728026_x_at): dose or concentration left out as unconfirmed
Details: MV-4-11 cells, 48 hours

With Nc1ncn([C@@H]2O[C@H](CO)[C@@H](O)[C@H]2O)c(=O)n1 [azacitidine] the “RFU SPINT1 (11716480_a_at)” value was 23.10 RFU.
